These results are taken from patent USRE47689E1, “Compounds for treating spinal muscular atrophy” (PTC Therapeutics, Inc., priority 2011, dated 2019).

As usually defined, the melting point is the temperature of the solid-liquid transition.

The structures appear in SMILES notation.

Data set [1] has as its system SMN2 minigene (full length SMN2 minigene mRNA containing SMN2 exon 7). As to the kind of experiment: SMN2 minigene mRNA splicing RT-qPCR assay in cultured cells. In kind it is cell-based, human. To be noted: Homo sapiens, HEK293-H; HEK293H cells stably transfected with SMN2-A minigene; 24 hours; 7-point concentration curve; 1.5-fold relative to vehicle-treated cells; read-out: EC1.5x for production of full length SMN2 mRNA. A digest of the protocol: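 Full-length SMN2 minigene mRNA (exon 7 included), minigene-specific and not endogenous SMN, quantified by RT-qPCR multiplexed with GAPDH in stably transfected HEK293H cells after 24 h compound exposure at 37° C. Abundance from efficiency-corrected Ct, normalized to GAPDH and vehicle; EC1.5x reported as star bins.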

For data set [2], the system named is Smn protein. As to the kind of experiment: Smn protein assay in cultured cells (SMN HTRF). The class given is cell-based, human. The note with it: 48 hours; for maximum fold (Fold) increase of Smn protein: SMA patient fibroblast cells, 7-point concentration data, fold increase relative to vehicle control (SMN HTRF); for EC1.5x (concentration giving 1.5-fold Smn protein increase): SMA Type 1 patient fibroblast cells (GM03813), 7-point concentration curve, SMN HTRF, concentration producing 1.5 times Smn protein vs DMSO vehicle control, read-out: EC1.5x for Smn protein expression. A digest of the protocol:
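Smn in SMA fibroblast lysates, measured by anti-SMN HTRF after 48 h compound exposure; EC1.5x from fold change over vehicle.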
A general note: In TR-FRET formats the signal depends on donor and acceptor labels being close together.

As to `CN1CCCN(c2ccc3cc(-c4cn5ccc(C(F)(F)F)cc5n4)c(=O)oc3c2)CC1` [Compound 276, 7-(4-methyl-1,4-diazepan-1-yl)-3-[7-(trifluoromethyl)imidazo[1,2-a]pyridin-2-yl]-2H-chromen-2-one], the melting point lay in the range of 244 to 249 °C. For the same molecule, the EC (1.5-fold) in data set [1] fell in the range of 0.3 to 1 µM. The “maximum fold (Fold) increase of Smn protein” value (from here on “maximum fold (Fold) increase”) in data set [2] is “* (maximum fold increase of ≤1.2)”.
On to `Cc1ccn2cc(-c3cc4ccc(N5CCCN(C)CC5)cc4oc3=O)nc2n1` [Compound 227, 7-(4-methyl-1,4-diazepan-1-yl)-3-(7-methylimidazo[1,2-a]pyrimidin-2-yl)-2H-chromen-2-one], for which the melting point was in the range of 232 to 236 °C. For the same molecule, the EC (1.5-fold) in data set [1] fell in the range of 0.1 to 0.3 µM. In addition, in data set [2], the EC1.5x (concentration giving 1.5-fold Smn protein increase) was in the range of 3000 to 10000 nM; the “maximum fold (Fold) increase” value was “*** (fold increase between >1.35 and ≤1.5)”.
`O=c1oc2cc(O[C@@H]3CCNC3)ccc2cc1-c1nc2ccccc2s1` [Compound 55, 3-(1,3-benzothiazol-2-yl)-7-[(3R)-pyrrolidin-3-yloxy]-2H-chromen-2-one] registered a melting point of 205 to 211 °C. In data set [1], the EC (1.5-fold) fell in the range of 1 to 3 µM. Moreover, in data set [2], the “maximum fold (Fold) increase” value is “* (maximum fold increase of ≤1.2)”.
As for `Cc1cn2cc(-c3cc4ccc(C5CCNCC5)cc4oc3=O)nc2cn1` [Compound 868, 3-(6-methylimidazo[1,2-a]pyrazin-2-yl)-7-(piperidin-4-yl)-2H-chromen-2-one], the melting point lay in the range of 247 to 253 °C. In addition, in data set [1], the EC (1.5-fold) was less than 0.1 µM. In data set [2], the EC1.5x (concentration giving 1.5-fold Smn protein increase) is less than 300 nM and the “maximum fold (Fold) increase” value was “***** (fold increase >1.65)”.
On to `Cc1cn2cc(-c3cc4ccc(C5CCN(CCCF)CC5)cc4oc3=O)nc2c(C)n1` [Compound 906, 3-(6,8-dimethylimidazo[1,2-a]pyrazin-2-yl)-7-[1-(3-fluoropropyl)piperidin-4-yl]-2H-chromen-2-one], for which the melting point was 195 to 200 °C. For the same molecule, in data set [1], the EC (1.5-fold) was less than 0.1 µM. Moreover, in data set [2], the EC1.5x (concentration giving 1.5-fold Smn protein increase) is less than 300 nM and the “maximum fold (Fold) increase” value is reported as “***** (fold increase >1.65)”.
With `Cc1nccn2cc(-c3cc4ccc(N5CCN[C@H](C)C5)cc4oc3=O)cc12` [Compound 586, 7-[(3R)-3-methylpiperazin-1-yl]-3-(1-methylpyrrolo[1,2-a]pyrazin-7-yl)-2H-chromen-2-one], the melting point is 212 to 215 °C. In addition, the EC (1.5-fold) in data set [1] is less than 0.1 µM. In addition, in data set [2], the EC1.5x (concentration giving 1.5-fold Smn protein increase) is less than 300 nM; the “maximum fold (Fold) increase” value is “*** (fold increase between >1.35 and ≤1.5)”.
`Cc1cn2cc(-c3cc4ccc(N5CCCNCC5)cc4oc3=O)cc2c(C)n1` [Compound 682, 7-(1,4-diazepan-1-yl)-3-(1,3-dimethylpyrrolo[1,2-a]pyrazin-7-yl)-2H-chromen-2-one]: the melting point was in the range of 187 to 190 °C. For the same molecule, the EC (1.5-fold) in data set [1] was less than 0.1 µM. Besides, in data set [2], the EC1.5x (concentration giving 1.5-fold Smn protein increase) lay within 1000 to 3000 nM; the “maximum fold (Fold) increase” value is “*** (fold increase between >1.35 and ≤1.5)”.
Molecule `Cc1cn2cc(-c3cc4ccc(CCN5CCC[C@@H]5CO)cc4oc3=O)nc2c(C)n1` [Compound 874, 3-(6,8-dimethylimidazo[1,2-a]pyrazin-2-yl)-7-{2-[(2R)-2-(hydroxymethyl)pyrrolidin-1-yl]ethyl}-2H-chromen-2-one] came in with a melting point of 166 to 171 °C. In addition, in data set [1], the EC (1.5-fold) is less than 0.1 µM. Further, in data set [2], the EC1.5x (concentration giving 1.5-fold Smn protein increase) is less than 300 nM and the “maximum fold (Fold) increase” value was “***** (fold increase >1.65)”.
As for `Cc1cc(F)c2nc(-c3cc4ccc(N5CCCNCC5)cc4oc3=O)cn2c1` [Compound 427, 7-(1,4-diazepan-1-yl)-3-(8-fluoro-6-methylimidazo[1,2-a]pyridin-2-yl)-2H-chromen-2-one], the melting point fell in the range of 242 to 252 °C. In addition, the EC (1.5-fold) in data set [1] is 0.3 to 1 µM. Besides, the “maximum fold (Fold) increase” value in data set [2] is “*** (fold increase between >1.35 and ≤1.5)”.
Take `O=c1oc2cc(N3CCNCC3)ccc2cc1-c1cn2cccnc2n1` [Cpd 89, 3-(imidazo[1,2-a]pyrimidin-2-yl)-7-(piperazin-1-yl)-2H-chromen-2-one]: the melting point was 286 °C (dec.). Further, the EC (1.5-fold) in data set [1] was in the range of 0.1 to 0.3 µM. Also, in data set [2], the EC1.5x (concentration giving 1.5-fold Smn protein increase) is 300 to 1000 nM; the “maximum fold (Fold) increase” value is “**** (fold increase between >1.5 and ≤1.65)”.
Molecule `Cc1cnc2nc(-c3cc4ccc(N5CCN(C)CC5)cc4oc3=O)cn2c1` [Compound 242, 3-(6-methylimidazo[1,2-a]pyrimidin-2-yl)-7-(4-methylpiperazin-1-yl)-2H-chromen-2-one] displayed a melting point greater than 310 °C. The EC (1.5-fold) in data set [1] was 0.3 to 1 µM. Besides, the “maximum fold (Fold) increase” value in data set [2] is “*** (fold increase between >1.35 and ≤1.5)”.
Molecule `Cc1cn2cc(-c3cc4ccc(N(C)C5CCN(C)C5)cc4oc3=O)nc2c(C)n1` (centres unmarked) [Compound 615, 3-(6,8-dimethylimidazo[1,2-a]pyrazin-2-yl)-7-[methyl(1-methylpyrrolidin-3-yl)amino]-2H-chromen-2-one] yielded a melting point of 182 to 184 °C. In data set [1], the EC (1.5-fold) is less than 0.1 µM. Besides, in data set [2], the EC1.5x (concentration giving 1.5-fold Smn protein increase) is less than 300 nM; the “maximum fold (Fold) increase” value is “**** (fold increase between >1.5 and ≤1.65)”.
For the molecule `Cc1cn2cc(-c3cc4ccc(N5C[C@@H]6CCCN(CCO)[C@@H]6C5)cc4oc3=O)nc2c(C)n1` [Compound 796, 3-(6,8-dimethylimidazo[1,2-a]pyrazin-2-yl)-7-[(4aS,7aS)-1-(2-hydroxyethyl)octahydro-6H-pyrrolo[3,4-b]pyridin-6-yl]-2H-chromen-2-one], the melting point fell in the range of 200 to 210 °C. Also, the EC (1.5-fold) in data set [1] was less than 0.1 µM. Further, in data set [2], the EC1.5x (concentration giving 1.5-fold Smn protein increase) was in the range of 300 to 1000 nM; the “maximum fold (Fold) increase” value was “**** (fold increase between >1.5 and ≤1.65)”.
Molecule `Cc1cn2cc(-c3cc4ccc(N5CCN(C)[C@H](C)C5)cc4oc3=O)cnc2n1` [Compound 660, 7-[(3R)-3,4-dimethylpiperazin-1-yl]-3-(2-methylimidazo[1,2-a]pyrimidin-6-yl)-2H-chromen-2-one] returned a melting point of 280 to 282 °C. In data set [1], the EC (1.5-fold) is less than 0.1 µM. Further, in data set [2], the EC1.5x (concentration giving 1.5-fold Smn protein increase) lay within 300 to 1000 nM and the “maximum fold (Fold) increase” value is recorded as “***** (fold increase >1.65)”.
Take `CCN1CCN(c2ccc3cc(-c4cn5ccsc5n4)c(=O)oc3c2)CC1` [Compound 201, 7-(4-ethylpiperazin-1-yl)-3-(imidazo[2,1-b][1,3]thiazol-6-yl)-2H-chromen-2-one]: the melting point fell in the range of 202 to 205 °C. In data set [1], the EC (1.5-fold) fell in the range of 0.3 to 1 µM. Further, in data set [2], the “maximum fold (Fold) increase” value was “** (fold increase between >1.2 and ≤1.35)”.
For the molecule `Cc1cn2cc(-c3cc4ccc(N5CCC(N6CCOCC6)C5)cc4oc3=O)cc2c(C)n1` (centres unmarked) [Compound 757, 3-(1,3-dimethylpyrrolo[1,2-a]pyrazin-7-yl)-7-[3-(morpholin-4-yl)pyrrolidin-1-yl]-2H-chromen-2-one], the melting point lay in the range of 118 to 122 °C. The EC (1.5-fold) in data set [1] was 0.3 to 1 µM. In data set [2], the EC1.5x (concentration giving 1.5-fold Smn protein increase) lay within 1000 to 3000 nM; the “maximum fold (Fold) increase” value is “*** (fold increase between >1.35 and ≤1.5)”.
